Test results reported in patent US7910582B2, “Cyclopropyl amines as modulators of the histamine H3 receptor” (Janssen Pharmaceutica NV, priority 2005, dated 2011).
Counter-ions that a name gives are not always drawn. Like-named read-outs stand apart in the source and are kept apart here.

Assays:
[1] = Pharmacokinetics and bioanalysis in the rat; type: in vivo, male Sprague Dawley Rats; conditions: for half-life (T1/2) relative to the comparative examples / volume of distribution (Vd) relative to the comparative examples: compared with isopropyl / cyclobutyl analogs
Procedure: One group of six male Sprague Dawley Rats (approx. 300 g body weight; three animals per time point) was used. They were group-housed, provided food and water ad libitum, and were maintained on a 12-h light and dark cycle. Animals were acclimatized for at least 7 days after receipt from the vendor prior to investigations.
For oral dosing, test compounds were formulated at 1 mg/mL in 0.5% hydroxypropyl methyl cellulose and delivered at a dose of 10 mg/kg. Citric acid salt forms (prepared as described for Example 1B) of the test compounds were used. Animals received a bolus dose of 10 mg/kg (10 mL/kg) for each compound via a 16 gauge intragastric gavage. For intravenous dosing, test compounds were formulated at 1 mg/mL in 5% dextrose in water and dosed at 1 mg/kg (1 mL/kg) with a bolus intravenous dose via a 24-gauge Terumo® Surflo® catheter in the lateral tail vein. All dosing solutions were prepared immediately prior to injection.
Blood samples (250 μL) were taken from the lateral tail vein into heparinized Natelson blood collection tubes and expelled into 1.5 mL mcirocentrifuge tubes. The blood samples were centrifuged for 5 min at 14,000 rpm in a micro-centrifuge. Plasma was retained and kept in a −20° C. freezer until analysis by LC-MS/MS.
Data analysis was performed using WinNonlin version 3.3 or 4.0.1. A non -compartmental model (#200 for Extravascular administration and #201 for i.v.) was used to determine the pharmacokinetic parameters shown in Tables 4 and 5 (NA=not applicable or not determined).

[2] = target: T1, Human H3 Receptor (Homo sapiens, UniProt Q9Y5N1); assay: [3H]-N-Methylhistamine binding, membranes of H3 receptor-expressing SK-N-MC cells; conditions: 0.8 nM [3H]-N-methylhistamine, 60 min at 25° C., average of results
T1 construct: expressed in transfected cells
Procedure: Cells were grown to about 70% to 80% confluence and removed from the plate with trypsin and pelleted in a clinical centrifuge. The pellet was then re-suspended in 400 μL of complete media and transferred to an electroporation cuvette with a 0.4 cm gap between the electrodes (Bio-Rad #165-2088). One μg supercoiled H3 receptor cDNA was added to the cells and mixed gently. The voltage for the electroporation was set at 0.25 kV and the capacitance was set at 960 μF. After electroporation the cells were diluted with 10 mL of complete media and were plated onto four 10 cm dishes at the following ratios: 1:20, 1:10, 1:5, and 1:2. The cells were allowed to recover for 24 h before adding 600 μg G-418. Colonies that survived selection were grown and tested. SK-N-MC cells were used because they give efficient coupling for inhibition of adenylate cyclase. The clones that gave the most robust inhibition of adenylate cyclase in response to histamine were used for further study.
Cell pellets from histamine H3 receptor-expressing SK-N-MC cells were homogenized in 50 mM TrisHCl/0.5 mM EDTA. Supernatants from an 800 g spin were collected and were recentrifuged at 30,000 g for 30 min. Pellets were re-homogenized in 50 mM Tris/5 mM EDTA (pH 7.4). Membranes were incubated with 0.8 nM [^3H]-N-methylhistamine plus/minus test compounds for 60 min at 25° C. and were harvested by rapid filtration over GF/C glass fiber filters (pretreated with 0.3% polyethylenimine) followed by four washes with buffer. Filters were added to 5 mL of scintillation cocktail, and the signal was then counted on a liquid scintillation counter.

[3] = male, Sprague Dawley, iv, i.v. 1 mg/kg, citric acid salt, plasma
[4] = male, Sprague Dawley, iv, i.v. 1 mg/kg, citric acid salt, plasma, read-out: AUCINF (h-μmol/mL)
[5] = male, Sprague Dawley, oral 10 mg/kg, citric acid salt, plasma
[6] = male, Sprague Dawley, oral 10 mg/kg, citric acid salt, plasma, read-out: AUCINF (h-μmol/mL)
[7] = male, Sprague Dawley, plasma, iv, i.v. 1 mg/kg, citric acid salt, read-out: Vd
[8] = male, Sprague Dawley, iv, i.v. 1 mg/kg, citric acid salt, plasma, read-out: AUCINF
[9] = male, Sprague Dawley, oral 10 mg/kg, citric acid salt, plasma, read-out: AUCINF
[10] = oral 10 mg/kg, citric acid salt

T1 sequence (Q9Y5N1 whole entry): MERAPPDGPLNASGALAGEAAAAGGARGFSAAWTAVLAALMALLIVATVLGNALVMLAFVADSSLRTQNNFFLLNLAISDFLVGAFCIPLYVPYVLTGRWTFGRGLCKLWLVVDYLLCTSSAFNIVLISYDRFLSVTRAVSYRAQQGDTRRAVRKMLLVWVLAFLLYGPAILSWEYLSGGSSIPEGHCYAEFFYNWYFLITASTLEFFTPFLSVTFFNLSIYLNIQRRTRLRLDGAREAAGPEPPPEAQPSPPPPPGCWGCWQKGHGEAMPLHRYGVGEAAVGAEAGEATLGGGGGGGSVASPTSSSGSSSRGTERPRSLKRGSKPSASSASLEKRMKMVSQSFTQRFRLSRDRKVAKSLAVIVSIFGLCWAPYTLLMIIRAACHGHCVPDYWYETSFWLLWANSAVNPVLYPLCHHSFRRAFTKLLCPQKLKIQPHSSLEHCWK

Compound | half-life (T1/2) relative to the comparative examples [1] | volume of distribution (Vd) relative to the comparative examples [1] | CI ([1]; i.v. 1 mg/kg, citric acid salt) [mL/min/kg] | Cmax [1, 3] | half-life [1, 3] [min] | AUC(0-inf) [1, 4] [µM·h] | Cmax [1, 5] | Tmax [1, 5] [min] | half-life [1, 5] [min] | AUC(0-inf) [1, 6] [µM·h] | Vd [1, 7] [L/kg] | Ki ([2]; read-out: Ki) [nM] | AUC(0-inf) [1, 8] [ng·h/mL] | AUC(0-inf) [1, 9] [ng·h/mL] | CI [1, 10] [mL/min/kg] | Vd [1, 10] [L/kg] | T1/2 ([1]; i.v. 1 mg/kg, citric acid salt, plasma) [h] | Ki ([2]; Ki (nM)) [nM] | Vd ([1]; i.v. 1 mg/kg, citric acid salt) [L/kg]
O=C(O)CC(O)(CC(=O)O)C(=O)O.O=C(c1ccc(CN2CCSCC2)cc1)N1CCN(C2CC2)CC1 [Example 3B, (4-Cyclopropyl-piperazin-1-yl)-(4-thiomorpholin-4-ylmethyl-phenyl) -methanone citrate salt] | shorter T1/2 | lower Vd | 282 | 860 nM | 16.2 | 0.18 | 190 nM | 15 | 24.6 | 0.18 | 6.48 |  |  |  |  |  |  |  | 
O=C(c1ccc(CN2CCOCC2)cc1)N1CCN(C2CCC2)CC1 [Comparative Example 2A, (4-Cyclobutyl-piperazin-1-yl)-(4-morpholin-4-ylmethyl-phenyl)-methanone dihydrochloride] |  |  |  |  |  |  |  |  |  |  |  | 1.7 |  |  |  |  |  |  | 
O=C(O)CC(O)(CC(=O)O)C(=O)O.O=C(c1ccc(CN2CCOCC2)cc1)N1CCN(C2CCC2)CC1 [Comparative Example 2B, (4-Cyclobutyl-piperazin-1-yl)-(4-morpholin-4-ylmethyl-phenyl)-methanone citrate salt] |  |  | 34.8 | 285 ng/mL | 112 |  | 683 ng/mL | 79.8 | 173 |  | 6.41 | 2 | 464 | 4100 | 43.2 | 10.33 |  |  | 
O=C(O)CC(O)(CC(=O)O)C(=O)O.O=C(c1ccc(CN2CCOC(CO)C2)cc1)N1CCN(C2CC2)CC1 (stereo not drawn) [Example 4B, (4-Cyclopropyl-piperazin-1-yl)-[4-(2-hydroxymethyl-morpholin-4-ylmethyl)-phenyl]-methanone citrate salt] | shorter T1/2 | lower Vd | 15.2 | 2920 nM | 88.2 | 3.07 | 8730 nM | 49.8 | 215 | 33.2 | 1.91 | 23 |  |  |  |  |  |  | 
CC(C)N1CCN(C(=O)c2ccc(CN3CCOC(CO)C3)cc2)CC1 (stereo not drawn) [Comparative Example 6B, [4-(2-Hydroxymethyl-morpholin-4-ylmethyl)-phenyl]-(4-isopropyl-piperazin-1-yl)-methanone citratae salt] |  |  | 34.9 | 1410 nM | 142 | 1.34 | 2960 nM | 30 | 261 | 20 | 7.04 | 5 |  |  |  |  |  |  | 
O=C(c1ccc(CN2CCC(F)CC2)cc1)N1CCN(C2CC2)CC1 [Example 2, (4-Cyclopropyl-piperazin-1-yl)-[4-(4-fluoro-piperidin-1-ylmethyl)-phenyl]-methanone] |  |  |  |  |  |  |  |  |  |  |  | 2 |  |  |  |  |  |  | 
O=C(c1ccc(CN2CCSCC2)cc1)N1CCN(C2CCC2)CC1 [Comparative Example 5, (4-Cyclobutyl-piperazin-1-yl)-(4-thiomorpholin-4-ylmethyl-phenyl)-methanone] |  |  |  |  |  |  |  |  |  |  |  | 1 |  |  |  |  |  |  | 
O=C(c1ccc(CN2CCSCC2)cc1)N1CCN(C2CC2)CC1 [Example 3, (4-Cyclopropyl-piperazin-1-yl)-(4-thiomorpholin-4-ylmethyl-phenyl) -methanone] |  |  |  |  |  |  |  |  |  |  |  | 2.5 |  |  |  |  |  |  | 
O=C(O)CC(O)(CC(=O)O)C(=O)O.O=C(c1ccc(CN2CCSCC2)cc1)N1CCN(C2CCC2)CC1 [Comparative Example 5B, (4-Cyclobutyl-piperazin-1-yl)-(4-thiomorpholin-4-ylmethyl-phenyl)-methanone citrate salt] |  |  | 154 | 2680 nM | 79.8 | 0.42 | 70 nM | 22.8 | 57 | 0.12 | 17.8 |  |  |  |  |  |  |  | 
CC(C)N1CCN(C(=O)c2ccc(CN3CCOCC3)cc2)CC1.O=C(O)CC(O)(CC(=O)O)C(=O)O [Comparative Example 1B, (4-Isopropyl-piperazin-1-yl)-(4-morpholin-4-ylmethyl-phenyl) -methanone citrate salt] |  |  | 12.8 | 4110 ng/mL |  |  | 1050 ng/mL | 90 | 283 |  | 3.55 |  | 1560 | 9740 | 17.1 | 6.98 | 3.2 |  | 
CC(C)N1CCN(C(=O)c2ccc(CN3CCC(F)CC3)cc2)CC1 [Comparative Example 3, [4-(4-Fluoro-piperidin-1-ylmethyl)-phenyl]-(4-isopropyl-piperazin-1-yl)-methanone] |  |  |  |  |  |  |  |  |  |  |  | 2 |  |  |  |  |  |  | 
O=C(O)CC(O)(CC(=O)O)C(=O)O.O=C(c1ccc(CN2CCOCC2)cc1)N1CCN(C2CC2)CC1 [Example 1B, (4-Cyclopropyl-piperazin-1-yl)-(4-morpholin-4-ylmethyl-phenyl) -methanone citrate salt] | shorter half-life | lower volume of distribution | 21.6 | 935 ng/mL | 55.2 |  | 2790 ng/mL | 30 | 187 |  | 1.72 |  | 777 | 8720 | 20.2 | 5.45 |  | 6.5 | 
O=C(c1ccc(CN2CCOC(CO)C2)cc1)N1CCN(C2CC2)CC1 (stereo not drawn) [Example 4, (4-Cyclopropyl-piperazin-1-yl)-[4-(2-hydroxymethyl-morpholin-4-ylmethyl)-phenyl]-methanone] |  |  |  |  |  |  |  |  |  |  |  | 6 |  |  |  |  |  |  | 
O=C(O)CC(O)(CC(=O)O)C(=O)O.O=C(c1ccc(CN2CCC(F)CC2)cc1)N1CCN(C2CCC2)CC1 [Comparative Example 4B, (4-Cyclobutyl-piperazin-1-yl)-[4-(4-fluoro-piperidin-1-ylmethyl)-phenyl]-methanone citrate salt] |  |  | 113 | 460 nM | 125 | 0.41 | 480 nM | 40.2 | 206 | 1.28 |  |  |  |  | 1135 | 397 |  |  | 20.3
